Results published in publication PMC6199744, “Development of Chemical Proteomics for the Folateome and Analysis of the Kinetoplastid Folateome” (ACS Infectious Diseases, 2018).

Tested on: L. major lysate proteins
Test: Multitargeted bead mixture chemoproteomics, single concentration competition, proteome-wide
Assay type: binding
Settings: for fold change: vehicle control = 1

Structure (SMILES): NCCOCCOCC(=O)Nc1nc2ncc(CNc3ccc(C(=O)NC(CCC(=O)O)C(=O)O)cc3)nc2c(=O)[nH]1 (stereo not shown) [compound 6]
- fold change vs vehicle control (protein LMJF.15.0690 HY[…], CONSERVED): 1.26
- fold change (protein LMJF.15.1010 GLUTAMATE DEHYDROGENASE): 1.11
- fold change (protein LMJF.15.1190 HY[…], CONSERVED (cyclic nucleotide-binding domain containing protein, putative)): 1.07
- fold change vs vehicle control (protein LMJF.16.0520 HYPOTHETICAL PROTEIN, CONSERVED): 0.99
- fold change vs vehicle control (protein LMJF.16.0540 ASPARTATE […], PUTATIVE): 1.06
- fold change relative to vehicle control (protein LMJF.16.0760, TRANSALDOLASE, PUTATIVE): 1.36
- fold change vs vehicle control (protein LMJF.16.0940 DYNEIN LIGHT CHAIN, PUTATIVE): 0.92
- fold change relative to vehicle control (protein LMJF.16.1180, COATOMER DELTA SUBUNIT-LIKE PROTEIN): 1.24
- fold change relative to vehicle control (protein LMJF.16.1320, […], PUTATIVE): 1.33
- fold change relative to vehicle control (protein LMJF.16.1420, HY[…], CONSERVED): 1.05
- fold change relative to vehicle control (protein LMJF.17.0081, […] 1-ALPHA): 1.09
- fold change relative to vehicle control (protein LMJF.18.0270, GLYCOGEN SYNTHASE KINASE, PUTATIVE): 1.13
- fold change (protein LMJF.18.0580 PEROXISOMAL ENOYL-COA HYDRATASE, PUTATIVE): 0.98
- fold change relative to vehicle control (protein LMJF.18.0680, CITRATE SYNTHASE, PUTATIVE): 1.1
- fold change vs vehicle control (protein LMJF.18.1010 DYNEIN LIGHT CHAIN 2B, CYTOPLASMIC, PUTATIVE): 0.82
- fold change vs vehicle control (protein LMJF.18.1210 PROLYL-TRNA SYNTHETASE, PUTATIVE,BIFUNCTIONAL AMINOACYL-TRNA SYNTHETASE, PUTATIVE): 1
- fold change vs vehicle control (protein LMJF.18.1370 HEAT SHOCK PROTEIN, PUTATIVE): 1.1
- fold change (protein LMJF.19.0200 ADP,ATP CARRIER PROTEIN 1, MITOCHONDRIAL PRECURSOR, PUTATIVE): 1.1
- fold change vs vehicle control (protein LMJF.19.1120 PROTEASOME REGULATORY NON-ATP-ASE SUBUNIT, PUTATIVE): 0.96
- fold change vs vehicle control (protein LMJF.19.1160 HY[…], CONSERVED): 1.08
- fold change vs vehicle control (protein LMJF.19.1560 INOSINE-5'-MONOPHOSPHATE DEHYDROGENASE): 0.98
- fold change relative to vehicle control (protein LMJF.19.1620, POTASSIUM VOLTAGE-GATED CHANNEL, PUTATIVE): 1.05
- fold change vs vehicle control (protein LMJF.20.1280 SMALL MYRISTOYLATED PROTEIN 4, PUTATIVE): 0.89
- fold change (protein LMJF.21.0810 METHIONYL-TRNA SYNTHETASE, PUTATIVE): 1.03
- fold change (protein LMJF.21.1450 ARGININE N-METHYLTRANSFERASE, TYPE II, PUTATIVE): 0.96
- fold change vs vehicle control (protein LMJF.21.1830 […] 5 SUBUNIT, PUTATIVE,20S […] ALPHA 5, (PUTATIVE)): 1.01
- fold change (protein LMJF.22.0230 AMINO ACID PERMEASE, PUTATIVE): 1.05
- fold change vs vehicle control (protein LMJF.22.0570 […] SUBUNIT 1, PUTATIVE): 1.03
- fold change vs vehicle control (protein LMJF.22.0730 HYPOTHETICAL PROTEIN, CONSERVED): 0.94
- fold change (protein LMJF.22.0770 NADH-CYTOCHROME B5 REDUCTASE, PUTATIVE): 0.79
- fold change relative to vehicle control (protein LMJF.23.0020, HY[…], CONSERVED): 1.46
- fold change relative to vehicle control (protein LMJF.23.0040, PEROXIDOXIN): 0.97
- fold change relative to vehicle control (protein LMJF.23.0080, HY[…], CONSERVED): 1.04
- fold change (protein LMJF.23.0210 ATP-BINDING CASSETTE PROTEIN SUBFAMILY C, MEMBER 1, PUTATIVE): 0.92
- fold change (protein LMJF.23.0370 CYTOCHROME C OXIDASE SUBUNIT 10, PUTATIVE): 0.83
- fold change relative to vehicle control (protein LMJF.23.0540, ACETYL-COA SYNTHETASE, PUTATIVE): 1.23
- fold change vs vehicle control (protein LMJF.23.0560 KINESIN, PUTATIVE): 1.1
- fold change vs vehicle control (protein LMJF.23.1410 HY[…], CONSERVED): 1.01
- fold change relative to vehicle control (protein LMJF.24.0070, HYPOTHETICAL PROTEIN, CONSERVED): 0.93
- fold change (protein LMJF.24.0140 ANKYRIN/TPR REPEAT PROTEIN): 1.06
- fold change (protein LMJF.24.0400 HY[…], CONSERVED (TPR repeat, putative)): 1.02
- fold change relative to vehicle control (protein LMJF.24.1510, IGE-DEPENDENT HISTAMINE-RELEASING FACTOR, PUTATIVE): 1.54
- fold change relative to vehicle control (protein LMJF.24.1630, SUCCINATE DEHYDROGENASE FLAVOPROTEIN, PUTATIVE): 1.08
- fold change relative to vehicle control (protein LMJF.24.2060, TRANSKETOLASE): 1.04
- fold change relative to vehicle control (protein LMJF.25.0010, BETA […] TRANSFERASE): 1.13
- fold change relative to vehicle control (protein LMJF.25.0910, CYCLOPHILIN A): 2.21
- fold change vs vehicle control (protein LMJF.25.1130 CYTOCHROME C OXIDASE VII, PUTATIVE): 0.99
- fold change relative to vehicle control (protein LMJF.25.1180, ATPASE BETA SUBUNIT, PUTATIVE): 1.13
- fold change vs vehicle control (protein LMJF.25.1610 HY[…], CONSERVED): 1.01
- fold change vs vehicle control (protein LMJF.25.1620 HYPOTHETICAL PROTEIN, CONSERVED): 1.1
- fold change (protein LMJF.25.2340 SERINE/THREONINE-PROTEIN KINASE, PUTATIVE,PROTEIN KINASE, PUTATIVE): 0.74
- fold change relative to vehicle control (protein LMJF.26.0630, HYPOTHETICAL PROTEIN, CONSERVED): 0.77
- fold change vs vehicle control (protein LMJF.26.1240 HEAT SHOCK PROTEIN 70-RELATED PROTEIN): 1.06
- fold change (protein LMJF.26.1710 CYTOCHROME C OXIDASE SUBUNIT V, PUTATIVE): 0.98
- fold change vs vehicle control (protein LMJF.26.2480 CDP-DIACYLGLYCEROL--INOSITOL 3-[…], PUTATIVE): 1.06
- fold change vs vehicle control (protein LMJF.26.2560 HYPOTHETICAL PROTEIN, CONSERVED): 0.93
- fold change vs vehicle control (protein LMJF.27.0190 PROTEASOME ALPHA 7 SUBUNIT, PUTATIVE): 0.98
- fold change (protein LMJF.27.0650 HY[…], CONSERVED): 1.15
- fold change (protein LMJF.27.0700 HY[…], CONSERVED): 1.08
- fold change vs vehicle control (protein LMJF.27.0760 GTP-binding protein homologue): 1.08
- fold change vs vehicle control (protein LMJF.27.1060 CYSTEINE DESULFURASE, PUTATIVE): 1.09
- fold change vs vehicle control (protein LMJF.27.1110 MITOCHONDRIAL RNA BINDING PROTEIN 1,GBP21, MRP1): 1
- fold change (protein LMJF.27.1250 HYPOTHETICAL PROTEIN, CONSERVED (Serine-threonine kinase receptor-associated protein, putative)): 0.85
- fold change relative to vehicle control (protein LMJF.27.1390, 60S ACIDIC RIBOSOMAL SUBUNIT PROTEIN, PUTATIVE): 1.07
- fold change (protein LMJF.27.1460 PROTEASOME REGULATORY NON-ATP-ASE SUBUNIT 3, PUTATIVE): 1.1
- fold change vs vehicle control (protein LMJF.28.0110 […] 3 SUBUNIT, PUTATIVE): 1.01
- fold change vs vehicle control (protein LMJF.28.0490 PROPIONYL-COA CARBOXYLASE BETA CHAIN, PUTATIVE): 1.2
